Source: PubChem BioAssay AID1189 (EPA DSSTox, 2008)
The source made the active and inactive calls.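 The calls were made as follows: active = a tumor-causing dose value with its tumor site reported for any sex and species group of a rodent or other animal cancer study; inconclusive = only studies judged inadequate by the national testing program; inactive = tested in at least one study, none positive.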

Assay: DSSTox (CPDBAS) Carcinogenic Potency Database Summary SingleCellCall Results
Details: animal chronic carcinogenicity bioassays, CPDB summary call
Summary of the method: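 Categorical carcinogenicity call compiled from published chronic rodent and other animal cancer bioassays; based on the most positive result across experiments for each sex-species, assigned on minimal evidence for or against activity.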
For `Cc1ccccc1S(N)(=O)=O`, the outcome was “active”. For `O=S(O)S(=O)(=O)O`, the outcome was “inactive”. In the case of `C=C(C)[C@H]1CC=C(C)CC1`, the outcome was “active”. With `CCCCNC(=O)NS(=O)(=O)c1ccc(C)cc1` the outcome was “inactive”. For `Clc1ccc(-c2ccc(Cl)c(Cl)c2Cl)c(Cl)c1Cl`, the outcome was “active”. For `COC(=O)[C@H]1[C@H]2C[C@@H]3c4[nH]c5ccccc5c4CCN3C[C@H]2C[C@@H](OC(=O)c2cc(OC)c(OC)c(OC)c2)[C@@H]1OC`, the outcome was “inactive”. For `O=C(C1CCCCC1)N1CC(=O)N2CCc3ccccc3C2C1` (configuration not stated), the outcome was “inactive”. In the case of `COc1ccc2nc(S(=O)Cc3ncc(C)c(OC)c3C)[nH]c2c1` (configuration not stated), the outcome was “active”. With `Oc1cccc2cccnc12` the outcome was “inactive”. In the case of `CCCCCC(/C=C/C=C\CCCCCCCC(=O)OC)OO` (configuration not stated), the outcome was “inactive”. For `S=C(SN1CCOCC1)N1CCOCC1`, the outcome was “active”. In the case of `COc1cc(S(C)=O)ccc1-c1nc2ccncc2[nH]1` (configuration not stated), the outcome was “active”. In the case of `CC(C)CCC[C@@H](C)[C@H]1CC[C@H]2[C@@H]3CC=C4C[C@@H](OC(=O)Cc5ccc(N(CCCl)CCCl)cc5)CC[C@]4(C)[C@H]3CC[C@]12C`, the outcome was “active”. For `C=CCN(CC(C)=O)N=O`, the outcome was “active”. For `CC(=O)N[C@@H](CC(C)C)C(=O)N[C@@H](CC(C)C)C(=O)N[C@H](C=O)CCCN=C(N)N`, the outcome was “active; inactive”. With `CCCCCCCCCc1ccc(OCCOCCO)cc1` the outcome was “inactive; active”. With `Cc1cc(Cl)ccc1OCC(=O)O` the outcome was “inactive”. In the case of `CCn1nc(C)c2c1C(c1ccccc1)=NCC(=O)N2`, the outcome was “active”. In the case of `N#Cc1ccc(C2CCCc3cncn32)cc1` (configuration not stated), the outcome was “inactive; active”. For `Nc1ccc2ccccc2c1S(=O)(=O)O`, the outcome was “inactive”. In the case of `CC(O)CN(CC(C)O)N=O` (configuration not stated), the outcome was “active”. With `Oc1ccccc1O` the outcome was “active”. For `ClCC(Cl)CCl`, the outcome was “active; inactive”. In the case of `CCc1ccccc1`, the outcome was “active”. In the case of `NNCCO`, the outcome was “active; inactive”. In the case of `Nc1ccc2nc3ccccn3c2n1`, the outcome was “active; inactive”. For `Cc1ccc(N)cc1`, the outcome was “active”. In the case of `CCC1(c2ccccc2)C(=O)NCNC1=O`, the outcome was “active”. For `CCOc1ccccc1C(N)=O`, the outcome was “active”. With `COC(=O)c1ccc(C(=O)OC)cc1` the outcome was “inactive; active”. In the case of `CC(C)CN(N=O)C(=N)N[N+](=O)[O-]`, the outcome was “inactive”. For `COC(=O)C(C)(C)Oc1ccc(-c2ccc(Cl)cc2)cc1`, the outcome was “active”. In the case of `CC1=C(C)C(=O)C(C(CCCCCC(=O)O)c2ccccc2)=C(C)C1=O` (configuration not stated), the outcome was “inactive”. In the case of `O=S(=O)(O)CCS`, the outcome was “inactive; active”. In the case of `O=C([O-])c1cc(N=Nc2ccc(-c3ccc(N=Nc4c(O)ccc(N=Nc5cc(S(=O)(=O)[O-])ccc5[O-])c4[O-])cc3)cc2)ccc1O.[Cu+2].[Na+].[Na+]`, the outcome was “active; inactive”. For `ClC(Cl)=C(Cl)c1c(Cl)c(Cl)c(Cl)c(Cl)c1Cl`, the outcome was “inactive”. For `OCCO`, the outcome was “inactive”. With `COc1ccccc1N1CCN(CCCNc2cc(=O)n(C)c(=O)n2C)CC1` the outcome was “inactive”. For `CCCCCC`, the outcome was “active”. For `C=CC=O`, the outcome was “inactive”. For `Clc1ccc2c(c1)Oc1ccc(Cl)cc1O2`, the outcome was “inactive”. In the case of `Cn1cc(C(=O)[C@@H]2CCc3nc[nH]c3C2)c2ccccc21`, the outcome was “inactive; active”. For `FC(F)OC(Cl)C(F)(F)F` (configuration not stated), the outcome was “inactive”. For `CN1C(=O)CN=C(c2ccccc2)c2cc(Cl)ccc21`, the outcome was “inactive”. With `CN(C)Nc1nc(-c2ccc([N+](=O)[O-])o2)cs1` the outcome was “active; inactive”. With `O=P(OCCCl)(OCCCl)OCCCl` the outcome was “active”. With `Nc1cccc2ccccc12` the outcome was “active”. With `Nc1ccc(S(=O)(=O)c2ccc(N)cc2)cc1` the outcome was “active”. In the case of `Nc1ccc(NCCO)c([N+](=O)[O-])c1`, the outcome was “inactive”. In the case of `[O]=[Cr](=[O])([OH])[O][Cr](=[O])(=[O])[OH]`, the outcome was “active”. In the case of `CC12CCC(CC1)C(C)(C)O2`, the outcome was “inactive”. For `CN(N=O)c1ncnc2nc[nH]c12`, the outcome was “active”.
